Results reported in ChEMBL document CHEMBL1201862, “PubChem BioAssay data set” (2004).
Activity calls are given as the source filed them.

How the values were obtained:
[1] = target: T1, Corticotropin-releasing factor receptor 2/Corticotropin-releasing factor-binding protein (Homo sapiens, UniProt P24387+Q13324); assay: activators of CRF receptor 2 with binding protein – uHTS hits, confirmation (AID 602473); format: functional; conditions: read-out: EC50_Mean
T1 sequence (Q13324 whole entry): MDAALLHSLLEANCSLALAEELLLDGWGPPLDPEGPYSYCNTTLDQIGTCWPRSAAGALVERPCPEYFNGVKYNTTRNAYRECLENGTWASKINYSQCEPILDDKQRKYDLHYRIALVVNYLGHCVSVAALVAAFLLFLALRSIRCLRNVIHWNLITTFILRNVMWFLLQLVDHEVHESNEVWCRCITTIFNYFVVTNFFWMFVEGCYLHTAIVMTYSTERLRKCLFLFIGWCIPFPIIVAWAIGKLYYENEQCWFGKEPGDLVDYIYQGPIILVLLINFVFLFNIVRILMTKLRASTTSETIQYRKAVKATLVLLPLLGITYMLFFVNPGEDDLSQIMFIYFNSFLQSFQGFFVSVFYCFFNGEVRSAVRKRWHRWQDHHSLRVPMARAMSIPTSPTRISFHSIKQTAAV
T1 sequence (P24387 whole entry): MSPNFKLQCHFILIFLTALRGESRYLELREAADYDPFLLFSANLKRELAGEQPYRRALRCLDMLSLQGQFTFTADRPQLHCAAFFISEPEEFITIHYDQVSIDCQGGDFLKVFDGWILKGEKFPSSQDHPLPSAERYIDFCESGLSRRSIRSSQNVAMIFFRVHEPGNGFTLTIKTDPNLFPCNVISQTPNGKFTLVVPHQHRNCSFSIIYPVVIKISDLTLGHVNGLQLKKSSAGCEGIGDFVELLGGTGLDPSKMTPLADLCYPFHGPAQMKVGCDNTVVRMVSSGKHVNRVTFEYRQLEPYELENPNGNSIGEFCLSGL

[2] = blockers of CRF-binding protein–CRF-R2 complex – cell-based, uHTS hits, 384-well, dose response (AID 651639); format: functional, Homo sapiens; conditions: read-out: IC50_Mean
[3] = target: T1, Corticotropin-releasing factor receptor 2/Corticotropin-releasing factor-binding protein; assay: Dose Response confirmation of uHTS hits for small molecule antagonists of the CRF-binding protein and CRF-R2 receptor complex.; format: functional; conditions: read-out: IC50_Mean
Large T antigen = Large T antigen (Simian virus 40, UniProt P03070); format: functional, Betapolyomavirus macacae;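 further: Confirmatory-stage PubChem screen for compounds that inhibit SV40 T antigen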
[4] = non-specific 3'UTR reporter inhibition in Clone20-Shn3RL – cell-based, Renilla luciferase, cherry-picked, counter-screen for Shn3 inhibitor project, dose response (AID 624133); format: functional
[5] = loss of viability in HepG2 cells – cell-based, CellTiter-Glo, cherry-picked, cytotoxicity control for Shn3 inhibitor project, dose response (AID 624134); format: functional
[6] = reduction of Shn3 3'UTR-driven luciferase in osteoblasts – cell-based, Clone20 osteoblasts, firefly luciferase, cherry-picked, dose response (AID 624132); format: functional;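 further: firefly luciferase luminescence from reporter carrying the Shn3 3'UTR in osteoblasts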
[7] = target: T2, Calpain-2 catalytic subunit (Sus scrofa, UniProt P43367); assay: m-calpain protease blockers, concentration series – biochemical, fluorogenic peptide substrate, dose response (AID 1420); format: functional
T2 sequence (P43367 whole entry): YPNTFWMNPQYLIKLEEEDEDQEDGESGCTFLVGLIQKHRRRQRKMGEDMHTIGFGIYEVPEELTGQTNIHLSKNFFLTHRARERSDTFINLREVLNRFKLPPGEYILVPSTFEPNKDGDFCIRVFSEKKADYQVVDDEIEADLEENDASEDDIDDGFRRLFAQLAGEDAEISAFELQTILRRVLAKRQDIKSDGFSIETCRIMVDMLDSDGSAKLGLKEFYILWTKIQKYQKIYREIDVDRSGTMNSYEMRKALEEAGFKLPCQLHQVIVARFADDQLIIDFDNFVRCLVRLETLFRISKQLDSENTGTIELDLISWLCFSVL

[8] = target: FAD-linked sulfhydryl oxidase ALR (Homo sapiens, UniProt P55789); assay: ALR-catalysed DTT oxidation blockers – biochemical, H2O2 detection, luminescence, cherry-pick, dose response (AID 493248)
Protein Wnt-3a = Protein Wnt-3a (Mus musculus, UniProt P27467); assay: antagonism of Wnt3a pathway luciferase reporter – Wnt-LIGHT cells, luminescence, selectivity assay for Gli-SUFU antagonist project, dose response (AID 651570); format: functional; conditions: read-out: IC50_Mean;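 further: Wnt-LIGHT reporter cells stimulated with conditioned medium from Wnt3a-producing cells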
Paired box protein Pax-8 = Paired box protein Pax-8 (Homo sapiens, UniProt Q06710); assay: PAX8 transcriptional activity inhibition in RMG-I – RMG-I cells, luciferase, cherry-pick, dose response (AID 687027); format: functional, cell-based;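 further: luciferase reporter driven by Pax8 target thyroperoxidase promoter measured by SteadyGlo luminescence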
INS1 = assay: INS-1E survival protection against cytokine death – cell-based, luminescence, retest, dose response (AID 449756); format: functional; conditions: Rattus norvegicus;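 further: cell death triggered by IL-1 beta plus TNF-alpha plus IFN-gamma mixture; protective hits raise ATP signal compared with cytokine alone wells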
[9] = Luminescence Cell-Based Dose Retest to Confirm Inhibitors of Cancer Stem Cells. [Related pubchem assays (depositor defined):AID2717, AID2721]; format: functional; conditions: Homo sapiens
[10] = target: T3, Sentrin-specific protease 7 (Homo sapiens, UniProt Q9BQF6); format: functional;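 further: Luminescence-based dose-response confirmation of ultra-high-throughput screening hits, measuring inhibition of SENP7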
T3 sequence (Q9BQF6 whole entry): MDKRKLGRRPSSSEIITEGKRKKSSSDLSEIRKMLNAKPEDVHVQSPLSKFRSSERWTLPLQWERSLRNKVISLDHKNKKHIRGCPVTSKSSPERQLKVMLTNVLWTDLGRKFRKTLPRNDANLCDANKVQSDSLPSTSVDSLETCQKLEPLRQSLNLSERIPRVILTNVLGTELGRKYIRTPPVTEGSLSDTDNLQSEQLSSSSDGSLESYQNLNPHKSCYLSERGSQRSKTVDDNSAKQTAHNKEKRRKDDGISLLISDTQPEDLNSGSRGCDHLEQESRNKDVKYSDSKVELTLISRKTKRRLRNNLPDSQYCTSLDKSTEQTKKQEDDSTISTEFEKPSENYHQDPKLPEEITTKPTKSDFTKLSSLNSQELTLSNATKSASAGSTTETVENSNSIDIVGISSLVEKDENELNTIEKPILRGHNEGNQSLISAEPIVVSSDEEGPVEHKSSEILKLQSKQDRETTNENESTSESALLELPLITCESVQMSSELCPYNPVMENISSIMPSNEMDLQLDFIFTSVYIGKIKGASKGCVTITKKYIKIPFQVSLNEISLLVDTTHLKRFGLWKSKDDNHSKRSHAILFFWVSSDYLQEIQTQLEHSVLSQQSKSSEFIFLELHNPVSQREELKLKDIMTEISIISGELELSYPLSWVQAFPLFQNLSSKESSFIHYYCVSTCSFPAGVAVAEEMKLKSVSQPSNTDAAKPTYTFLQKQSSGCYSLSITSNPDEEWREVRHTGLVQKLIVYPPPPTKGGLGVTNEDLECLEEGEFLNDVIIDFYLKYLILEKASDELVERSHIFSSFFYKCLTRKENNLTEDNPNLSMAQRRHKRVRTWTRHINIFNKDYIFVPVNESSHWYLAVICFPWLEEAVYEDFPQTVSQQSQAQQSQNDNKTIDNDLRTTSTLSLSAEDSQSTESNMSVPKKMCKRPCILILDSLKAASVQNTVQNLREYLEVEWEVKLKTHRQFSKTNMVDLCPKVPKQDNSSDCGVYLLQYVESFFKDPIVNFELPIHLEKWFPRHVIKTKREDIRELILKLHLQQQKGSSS

[11] = tested on: Streptococcus sp. 'group A'; assay: Streptococcus pyogenes SK(-)GAS viability under kanamycin – luminescence, BacTiterGlo, confirmation, counter-screen for streptokinase expression inhibitor project, dose response (AID 1900); format: functional, organism-based
[12] = target: T4, Sentrin-specific protease 8 (Homo sapiens, UniProt Q96LD8); format: functional;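 further: luminescence read-out of SENP8 inhibition, dose-response confirmation following an ultra-high-throughput screen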
T4 sequence (Q96LD8 whole entry): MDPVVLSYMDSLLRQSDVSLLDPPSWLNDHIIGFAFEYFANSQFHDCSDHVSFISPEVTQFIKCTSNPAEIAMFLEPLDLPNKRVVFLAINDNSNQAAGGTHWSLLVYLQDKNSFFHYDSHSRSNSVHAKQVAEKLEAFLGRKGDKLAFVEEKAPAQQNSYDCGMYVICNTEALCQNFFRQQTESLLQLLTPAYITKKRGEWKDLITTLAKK

Caspase-3 = target: T5, Caspase-3 (Homo sapiens, UniProt P42574); format: functional;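 further: Dose-response selectivity test against caspase-3 for candidate inhibitors of sentrin-specific proteases (SENPs)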
T5 sequence (P42574 whole entry): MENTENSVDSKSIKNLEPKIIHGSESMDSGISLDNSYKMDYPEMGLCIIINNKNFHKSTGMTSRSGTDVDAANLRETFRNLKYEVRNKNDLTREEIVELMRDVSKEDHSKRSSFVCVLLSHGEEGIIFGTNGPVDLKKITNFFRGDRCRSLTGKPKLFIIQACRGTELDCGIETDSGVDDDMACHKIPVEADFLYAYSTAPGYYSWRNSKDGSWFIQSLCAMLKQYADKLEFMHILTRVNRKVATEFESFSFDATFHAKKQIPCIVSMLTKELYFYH

Streptococcus = assay: GAS UMAA2166 growth inhibition – luminescence, BacTiterGlo, counter-screen for streptokinase expression inhibitor project, dose response (AID 1915); format: functional, organism-based;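 further: potency for reduction of bacterial viability or growth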
Melanocortin receptor 4 = Melanocortin receptor 4 (Homo sapiens, UniProt P32245); format: functional, cell-based;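 further: Cell-based assay with luminescence read-out, confirmatory dose-response testing for agonist activity of biased ligands at MC4R; human U2OS cells with tagged receptor and beta-arrestin; potency of agonists that increase receptor coupling to beta-arrestin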
[13] = target: T6, Sentrin-specific protease 6 (Homo sapiens, UniProt Q9GZR1); format: functional;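 further: Luminescence-based dose-response confirmatory assay of SENP6 inhibition, following up an ultra-high-throughput screen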
T6 sequence (Q9GZR1 whole entry): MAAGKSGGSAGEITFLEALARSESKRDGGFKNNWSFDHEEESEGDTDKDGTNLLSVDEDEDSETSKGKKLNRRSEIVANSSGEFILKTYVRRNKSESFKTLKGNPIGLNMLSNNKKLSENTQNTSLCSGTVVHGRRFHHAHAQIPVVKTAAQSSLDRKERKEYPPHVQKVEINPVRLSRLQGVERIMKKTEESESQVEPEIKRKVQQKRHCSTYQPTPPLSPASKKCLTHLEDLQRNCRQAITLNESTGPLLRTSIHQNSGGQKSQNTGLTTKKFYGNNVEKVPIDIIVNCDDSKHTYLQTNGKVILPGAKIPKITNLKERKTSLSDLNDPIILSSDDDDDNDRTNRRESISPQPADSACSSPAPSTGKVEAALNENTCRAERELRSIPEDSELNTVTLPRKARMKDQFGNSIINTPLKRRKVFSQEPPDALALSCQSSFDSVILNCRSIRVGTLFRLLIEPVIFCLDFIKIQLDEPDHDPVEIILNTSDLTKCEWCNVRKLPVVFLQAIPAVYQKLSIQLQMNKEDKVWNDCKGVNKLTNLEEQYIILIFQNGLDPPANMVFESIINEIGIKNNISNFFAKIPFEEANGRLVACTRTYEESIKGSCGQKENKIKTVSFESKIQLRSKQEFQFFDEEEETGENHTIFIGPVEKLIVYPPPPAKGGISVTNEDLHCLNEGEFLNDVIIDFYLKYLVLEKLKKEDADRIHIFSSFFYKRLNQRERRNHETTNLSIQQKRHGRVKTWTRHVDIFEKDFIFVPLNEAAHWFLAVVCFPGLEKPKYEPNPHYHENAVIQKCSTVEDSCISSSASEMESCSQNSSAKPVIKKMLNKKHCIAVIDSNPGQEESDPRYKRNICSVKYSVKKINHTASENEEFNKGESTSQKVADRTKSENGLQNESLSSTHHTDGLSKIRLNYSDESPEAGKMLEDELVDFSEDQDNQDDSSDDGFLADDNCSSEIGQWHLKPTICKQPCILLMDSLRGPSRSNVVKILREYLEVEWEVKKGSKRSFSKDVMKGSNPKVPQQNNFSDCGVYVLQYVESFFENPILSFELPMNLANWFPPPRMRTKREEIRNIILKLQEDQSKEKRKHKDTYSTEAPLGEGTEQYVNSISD

Sequence of Paired box protein Pax-8 (Q06710 whole entry): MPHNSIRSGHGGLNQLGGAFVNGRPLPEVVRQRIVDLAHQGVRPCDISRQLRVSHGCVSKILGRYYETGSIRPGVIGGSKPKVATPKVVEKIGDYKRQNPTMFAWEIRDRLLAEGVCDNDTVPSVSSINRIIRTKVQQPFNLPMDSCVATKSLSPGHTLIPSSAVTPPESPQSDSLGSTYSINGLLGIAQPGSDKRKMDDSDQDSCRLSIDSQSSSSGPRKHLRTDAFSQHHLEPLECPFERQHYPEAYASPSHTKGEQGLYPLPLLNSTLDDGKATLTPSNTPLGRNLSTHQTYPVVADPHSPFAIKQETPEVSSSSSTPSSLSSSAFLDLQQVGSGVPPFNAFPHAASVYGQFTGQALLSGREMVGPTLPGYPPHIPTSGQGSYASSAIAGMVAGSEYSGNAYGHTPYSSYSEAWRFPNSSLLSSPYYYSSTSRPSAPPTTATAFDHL
Sequence of Large T antigen (P03070 whole entry): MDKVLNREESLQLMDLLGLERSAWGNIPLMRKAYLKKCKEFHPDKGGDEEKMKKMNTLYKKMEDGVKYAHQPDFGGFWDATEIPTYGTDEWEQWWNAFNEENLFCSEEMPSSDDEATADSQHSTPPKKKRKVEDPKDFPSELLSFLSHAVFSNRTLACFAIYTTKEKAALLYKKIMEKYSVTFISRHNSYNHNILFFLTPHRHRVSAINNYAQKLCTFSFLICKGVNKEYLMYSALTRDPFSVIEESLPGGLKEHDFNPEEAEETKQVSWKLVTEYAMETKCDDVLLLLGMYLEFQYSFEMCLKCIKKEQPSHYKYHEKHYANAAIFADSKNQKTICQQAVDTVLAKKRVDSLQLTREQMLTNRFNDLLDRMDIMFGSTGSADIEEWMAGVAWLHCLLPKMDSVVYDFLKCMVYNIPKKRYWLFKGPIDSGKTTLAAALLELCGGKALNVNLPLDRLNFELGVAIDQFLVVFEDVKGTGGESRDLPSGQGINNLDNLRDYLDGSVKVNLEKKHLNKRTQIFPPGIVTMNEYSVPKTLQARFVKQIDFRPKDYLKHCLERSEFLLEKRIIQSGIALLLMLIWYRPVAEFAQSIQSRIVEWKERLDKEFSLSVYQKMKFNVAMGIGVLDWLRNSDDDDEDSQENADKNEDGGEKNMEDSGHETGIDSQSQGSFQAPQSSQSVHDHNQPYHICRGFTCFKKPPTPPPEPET
Sequence of FAD-linked sulfhydryl oxidase ALR (P55789 whole entry): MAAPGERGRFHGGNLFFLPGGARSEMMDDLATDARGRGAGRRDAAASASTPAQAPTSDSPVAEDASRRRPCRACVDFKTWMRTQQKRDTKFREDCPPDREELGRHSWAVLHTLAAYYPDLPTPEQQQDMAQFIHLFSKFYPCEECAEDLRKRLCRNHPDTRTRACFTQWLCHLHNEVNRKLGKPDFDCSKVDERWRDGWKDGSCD
Sequence of Melanocortin receptor 4 (P32245 whole entry): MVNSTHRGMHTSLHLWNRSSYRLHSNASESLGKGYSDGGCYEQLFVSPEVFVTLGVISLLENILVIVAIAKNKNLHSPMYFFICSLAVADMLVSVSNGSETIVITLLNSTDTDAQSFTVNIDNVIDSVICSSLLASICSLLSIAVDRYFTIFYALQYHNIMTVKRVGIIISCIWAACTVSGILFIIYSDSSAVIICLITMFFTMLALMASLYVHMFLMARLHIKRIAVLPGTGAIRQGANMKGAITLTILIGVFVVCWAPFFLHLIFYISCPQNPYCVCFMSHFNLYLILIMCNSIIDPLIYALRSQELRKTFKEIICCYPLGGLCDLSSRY
Sequence of Protein Wnt-3a (P27467 whole entry): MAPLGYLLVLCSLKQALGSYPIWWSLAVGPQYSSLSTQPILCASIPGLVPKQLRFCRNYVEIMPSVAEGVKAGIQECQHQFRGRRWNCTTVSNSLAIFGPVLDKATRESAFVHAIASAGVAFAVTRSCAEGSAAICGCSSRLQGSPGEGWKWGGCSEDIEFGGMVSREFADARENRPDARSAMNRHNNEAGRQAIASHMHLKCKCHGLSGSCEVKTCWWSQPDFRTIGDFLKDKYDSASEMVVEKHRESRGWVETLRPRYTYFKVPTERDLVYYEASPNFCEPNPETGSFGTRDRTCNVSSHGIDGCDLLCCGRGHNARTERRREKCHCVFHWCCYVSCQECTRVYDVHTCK

Which results are given for `Cc1ccc(Cl)cc1N1CCN(C(=O)Cc2c(C(=O)O)[nH]c3ccccc23)CC1`?
EC50 [1]: > 53 µM (inactive); IC50 [2]: > 20 µM (inactive); IC50 [3]: 33.5 µM (active)

For `CC(C)(C)NC(=O)NC(=O)CN1CCN(c2ccc(O)cc2)CC1`, which IC50 (Large T antigen) is on record?
Its IC50 is 21.2 µM (active).

And the AC50 [4]?
The AC50 was 5.88 µM (active).

And the AC50 [5]?
The AC50 was 67.2 µM (active).

And the AC50 [6]?
The AC50 was 1.9 µM (active).

What about the IC50 [7] of the same compound?
The IC50 was 19.1 µM (not active).

And the AC50 [8]?
The AC50 was 4.04 µM (active).

For `Clc1ccc(-c2c[n+](-c3ccc(Cl)cc3)c3n2CCCCC3)cc1`, which IC50 (Protein Wnt-3a) is on record?
Its IC50 is 26.4 µM (inactive).

For `CCC(C)C1NC(=O)C(NC(=O)C(CC(C)C)N(C)C(=O)C2CCCN2C(=O)C(C)O)C(C)OC(=O)C(Cc2ccc(OC)cc2)N(C)C(=O)C2CCCN2C(=O)C(CC(C)C)NC(=O)[C@H](C)C(=O)[C@H](C(C)C)OC(=O)CC1O` (some centres not stated), which AC50 [4] is on record?
The AC50 was < 0.26 µM (active).

And the AC50 [5]?
Its AC50 is > 70 µM (inactive).

And the AC50 [6]?
Its AC50 is < 0.26 µM (active).

What about the AC50 (Paired box protein Pax-8) of the same compound?
Its AC50 is < 0.26 µM (active).

What does the source list for `c1ccc(CNc2c(-c3cccc(SC4CCCCC4)c3)nc3ccccn23)cc1`?
AC50 [4]: 6.09 µM (active); AC50 [5]: > 70 µM (inactive); AC50 (INS1): 5.06 µM (active); AC50 [6]: 3.46 µM (active); AC50 [9]: 5.29 µM (active)

With `COc1cc(O)c(CC=C(C)C)c(O)c1C(=O)CCc1ccc(O)cc1` [DIHYDROXANTHOHUMOL] as the compound, how does the IC50 [10] read?
Its IC50 is 7.82 µM (active).

What about the EC50 [11] of the same compound?
The EC50 was 2.79 µM (active).

What about the IC50 [12] of the same compound?
Its IC50 is 13.3 µM (active).

What about the IC50 (Caspase-3) of the same compound?
Its IC50 is > 100 µM (inactive).

What about the EC50 (Streptococcus) of the same compound?
The EC50 was 3.05 µM (active).

What about the IC50 [7] of the same compound?
Its IC50 is 5 µM (not active).

And the EC50 (Melanocortin receptor 4)?
Its EC50 is > 89.2 µM (inactive).

What about the IC50 [13] of the same compound?
The IC50 was 10 µM (active).
